The subject of one series is M. bovis BCG. Nature of the series: microbe, parasite or virus in culture. The series is classed as cell-based, Mycobacterium bovis BCG Pasteur. Conditions: for MIC: Mycobacterium tuberculosis variant bovis BCG, BCG; for anti-mycobacterial activity (in words): M. bovis BCG.
A short description of series [1]: Cytotoxicity against HUVECs (WST-8). In kind it is cell-based, human. As to conditions: human, HUVECs (human umbilical vein endothelial cells), 72 h. The procedure: (§1) HUVECs (5 × 10^5 cells/vial) was purchased from Kurabo Inc. and grown in HuMedia-EG2 medium with growth supplements (Kurabo Inc., Osaka, Japan). HUVECs in the culture medium was plated into each well of 96-well plates (2 × 10^3 cells/well/100 µL). After 24 h, the serially diluted compounds, which were dissolved in the medium containing no more than 0.5% EtOH, were added, and then the plates were incubated for an additional 72 h in a humidified atmosphere of 5% CO2 at 37 °C. The cell proliferation was detected by WST-8 colorimetric reagent (Nacalai Tesque, Inc., Kyoto, Japan). The IC50 value was determined by linear interpolation from the growth inhibition curve.

For a further series, the system named is HUVECs. Nature of the series: Cytotoxicity against HUVECs (WST-8). The series is classed as cell-based, human. As for the experimental part:
as §1

Values after ≈ are worked out from the molar mass of the structure shown. Where two headings read alike, the source gives them in different places. A value given as a limit tells only on which side of the number the result lay.

Consider `COC1=Cc2ccnc3c(NCCc4ccccc4)cnc(c23)C1=O` [Compound 1, 3-(phenethylamino)demethyl(oxy)aaptamine, reference compound], for which the MIC stood at 1.56 µM (≈ 0.517 µg/mL) in the series on M. bovis BCG (168 h, read-out: MIC (Aerobic)) and 1.56 µM (≈ 0.517 µg/mL) in the series on M. bovis BCG (336 h, read-out: MIC (Hypoxic)). This molecule also gave an IC50 at 72 h in series [1] of 1.36 µM.

As to `COc1cc2ccnc(C(=O)NCCc3ccccc3)c2cc1OC` [Compound 5, 6,7-Dimethoxy-N-phenethylisoquinoline-1-carboxamide], the “anti-mycobacterial activity (in words)” value with M. bovis BCG is listed as “weak anti-mycobacterial activity”. Moreover, the MIC with M. bovis BCG (168 h, read-out: MIC (Aerobic)) worked out at 100 µM (≈ 33.6 µg/mL); in the series with M. bovis BCG (336 h, read-out: MIC (Hypoxic)) it was 200 µM (≈ 67.3 µg/mL). Besides, in series [1], half-maximal inhibition (IC50 at 72 h) required 11.9 µM.

In the case of `c1ccc(CCNc2cnc3ccccc3c2)cc1` [Compound 6, N-Phenethylquinolin-3-amine], the MIC in the series with M. bovis BCG (168 h, read-out: MIC (Aerobic)) was 6.25 µM (≈ 1.55 µg/mL); with M. bovis BCG (336 h, read-out: MIC (Hypoxic)), 50 µM (≈ 12.4 µg/mL). In series [1], the IC50 at 72 h worked out at 18 µM.

Take `c1ccc(CCNc2cncc3cccnc23)cc1` [Compound 7, N-Phenethyl-1,6-naphthyridin-8-amine]: the “anti-mycobacterial activity (in words)” value with M. bovis BCG is recorded as “weak anti-mycobacterial activity”. For the same molecule, the MIC with M. bovis BCG (168 h, read-out: MIC (Aerobic)) turned out to be 100 µM (≈ 24.9 µg/mL); with M. bovis BCG (336 h, read-out: MIC (Hypoxic)), 50 µM (≈ 12.5 µg/mL). Besides, half-maximal inhibition in series [1] (IC50 at 72 h) was put at 8.1 µM.

For the molecule `c1ccc(CCNc2cccnc2)cc1` [Compound 8, N-Phenethylpyridin-3-amine], in the series on M. bovis BCG, the “anti-mycobacterial activity (in words)” value was “weak anti-mycobacterial activity”. Further, the MIC in the series on M. bovis BCG (168 h, read-out: MIC (Aerobic)) is 200 µM (≈ 39.7 µg/mL); in the series on M. bovis BCG (336 h, read-out: MIC (Hypoxic)), 200 µM (≈ 39.7 µg/mL). Also, in series [1], the IC50 at 72 h is over 100 µM.

`O=C1C=CC(=O)c2ncc(NCCc3ccccc3)cc21` [Compound 25, 3-(Phenethylamino)quinoline-5,8-dione]: the “anti-mycobacterial activity (in words)” value with M. bovis BCG is recorded as “weakened anti-mycobacterial activity”. Moreover, the MIC is 100 µM (≈ 27.8 µg/mL) in the series with M. bovis BCG (168 h, read-out: MIC (Aerobic)) and over 200 µM in the series on M. bovis BCG (336 h, read-out: MIC (Hypoxic)). The molecule also gave an IC50 at 72 h in series [1] of under 1 µM. Besides, the “cytotoxicity (in words)” value in the series on HUVECs was “enhanced cytotoxicity”.

Take `COC1=CC(=O)c2cc(NCCc3ccccc3)cnc2C1=O` [Compound 32, 7-Methoxy-3-(phenethylamino)quinoline-5,8-dione]: in the series on M. bovis BCG, the “anti-mycobacterial activity (in words)” value is recorded as “weakened anti-mycobacterial activity”. Further, the MIC turned out to be 25 µM (≈ 7.71 µg/mL) with M. bovis BCG (168 h, read-out: MIC (Aerobic)) and 50 µM (≈ 15.4 µg/mL) in the series on M. bovis BCG (336 h, read-out: MIC (Hypoxic)). Moreover, the 50% inhibitory concentration (IC50) at 72 h in series [1] was under 1 µM. Besides, the “cytotoxicity (in words)” value with HUVECs is “enhanced cytotoxicity”.

For `O=c1c(NCCc2ccccc2)c[nH]c2ccccc12` [Compound 35, 3-(Phenethylamino)quinolin-4(1H)-one], in the series with M. bovis BCG, the “anti-mycobacterial activity (in words)” value is “no anti-mycobacterial or cytotoxic activity”. The MIC in the series on M. bovis BCG (168 h, read-out: MIC (Aerobic)) was over 200 µM; in the series on M. bovis BCG (336 h, read-out: MIC (Hypoxic)) it was over 200 µM. For the same molecule, the IC50 at 72 h in series [1] was over 100 µM. Further, the “cytotoxicity (in words)” value with HUVECs is on record as “no anti-mycobacterial or cytotoxic activity”.

With `O=C(Cc1ccccc1)Nc1cnc2ccccc2c1` [Compound 36, 2-Phenyl-N-(quinolin-3-yl)acetamide], the “anti-mycobacterial activity (in words)” value in the series with M. bovis BCG is recorded as “significantly weakened anti-mycobacterial activity”. Besides, the MIC in the series with M. bovis BCG (168 h, read-out: MIC (Aerobic)) is 100 µM (≈ 26.2 µg/mL); in the series with M. bovis BCG (336 h, read-out: MIC (Hypoxic)), 100 µM (≈ 26.2 µg/mL). The molecule further gave a half-maximal inhibitory concentration (IC50) at 72 h in series [1] of 4.9 µM.

Take `CN(CCc1ccccc1)c1cnc2ccccc2c1` [Compound 37, N-Methyl-N-phenethylquinolin-3-amine]: the “anti-mycobacterial activity (in words)” value with M. bovis BCG is on record as “antibacterial activity comparable to that of 6”. Moreover, the MIC with M. bovis BCG (168 h, read-out: MIC (Aerobic)) was 6.25 µM (≈ 1.64 µg/mL); with M. bovis BCG (336 h, read-out: MIC (Hypoxic)), 50 µM (≈ 13.1 µg/mL). This molecule also came in with a half-maximal inhibitory concentration (IC50) at 72 h in series [1] of 16 µM.

Take `C#CCN(CCc1ccccc1)c1cnc2ccccc2c1` [Compound 38, N-Phenethyl-N-(prop-2-yn-1-yl)quinolin-3-amine]: the “anti-mycobacterial activity (in words)” value in the series with M. bovis BCG is reported as “significantly weakened anti-mycobacterial activity”. The MIC in the series with M. bovis BCG (168 h, read-out: MIC (Aerobic)) was found to be 100 µM (≈ 28.6 µg/mL); with M. bovis BCG (336 h, read-out: MIC (Hypoxic)), 100 µM (≈ 28.6 µg/mL). For the same molecule, the IC50 at 72 h in series [1] was 18 µM.

Turning to `c1ccc(CCOc2cnc3ccccc3c2)cc1` [Compound 40, 3-Phenethoxyquinoline], in the series with M. bovis BCG, the “anti-mycobacterial activity (in words)” value is on record as “significantly weakened anti-mycobacterial activity”. The MIC in the series on M. bovis BCG (168 h, read-out: MIC (Aerobic)) was 50 µM (≈ 12.5 µg/mL); in the series on M. bovis BCG (336 h, read-out: MIC (Hypoxic)), 100 µM (≈ 24.9 µg/mL). Besides, inhibition in series [1] was half-maximal at 11 µM (IC50 at 72 h).

Turning to `c1ccc2ncc(NCCC3CCCCC3)cc2c1` [Compound 42, N-(2-Cyclohexylethyl)quinolin-3-amine], the MIC in the series on M. bovis BCG (168 h, read-out: MIC (Aerobic)) was 50 µM (≈ 12.7 µg/mL); in the series on M. bovis BCG (336 h, read-out: MIC (Hypoxic)), 100 µM (≈ 25.4 µg/mL). In addition, half-maximal inhibition in series [1] (IC50 at 72 h) was put at 15 µM.

Turning to `c1ccc2ncc(NCCc3cccc4ccccc34)cc2c1` [Compound 43, N-(2-(Naphthalen-1-yl)ethyl)quinolin-3-amine], the “anti-mycobacterial activity (in words)” value in the series on M. bovis BCG is recorded as “markedly reduced anti-mycobacterial activity”. In addition, the MIC in the series with M. bovis BCG (168 h, read-out: MIC (Aerobic)) was 100 µM (≈ 29.8 µg/mL); with M. bovis BCG (336 h, read-out: MIC (Hypoxic)) it was over 200 µM. Besides, in series [1], it took 11 µM to reach half-maximal inhibition (IC50 at 72 h).

Turning to `c1ccc2cc(CCNc3cnc4ccccc4c3)ccc2c1` [Compound 44, N-(2-(Naphthalen-2-yl)ethyl)quinolin-3-amine], in the series with M. bovis BCG, the “anti-mycobacterial activity (in words)” value is “good anti-mycobacterial activity under aerobic and hypoxic conditions”. In addition, the MIC in the series with M. bovis BCG (168 h, read-out: MIC (Aerobic)) turned out to be 6.25 µM (≈ 1.86 µg/mL); in the series with M. bovis BCG (336 h, read-out: MIC (Hypoxic)), 12.5 µM (≈ 3.73 µg/mL). Besides, half-maximal inhibition in series [1] (IC50 at 72 h) was put at 13 µM.

As to `c1csc(CCNc2cnc3ccccc3c2)c1` [Compound 45, N-(2-(Thiophen-2-yl)ethyl)quinolin-3-amine], the MIC with M. bovis BCG (168 h, read-out: MIC (Aerobic)) stood at 6.25 µM (≈ 1.59 µg/mL); in the series on M. bovis BCG (336 h, read-out: MIC (Hypoxic)) it was 50 µM (≈ 12.7 µg/mL). The molecule also had an IC50 at 72 h in series [1] of 14 µM.

Take `C#CCCNc1cnc2ccccc2c1` [Compound 46, N-(But-3-yn-1-yl)quinolin-3-amine]: the MIC in the series on M. bovis BCG (168 h, read-out: MIC (Aerobic)) was over 200 µM; in the series on M. bovis BCG (336 h, read-out: MIC (Hypoxic)), over 200 µM. Besides, in series [1], the IC50 at 72 h is 53 µM.

Take `NNC(=O)c1ccncc1` [isoniazid, reference compound]: the MIC in the series with M. bovis BCG (168 h, read-out: MIC (Aerobic)) was 0.39 µM (≈ 0.0535 µg/mL); in the series on M. bovis BCG (336 h, read-out: MIC (Hypoxic)) it was over 200 µM.
